Reference: publication PMC10518257 (Nature Cancer, 2023)
Where “and” joins values, the source holds several entries; their conditions need not be identical. Identical values can stand only once. Like-named read-outs stand apart in the source and are kept apart here.

Legend:
[1] = Pharmacokinetic analysis of vepafestinib in rats (microdialysis PFC, CSF, plasma); format: in vivo, male Han Wistar rats; details: for concentration at 480 min: read-out: Concentration in Cerebrospinal fluid
[2] = tested on: RET phosphorylation at Y905 and Y1062 and downstream effectors; assay: Western blotting of serum-starved LUAD-0002AS1, ECLC5B and TT cells, 2 h; format: cell-based, human; details: 50 nM
Description: Serum-starved cells were treated with 5, 50 or 500 nM inhibitor for 2 h, and then protein phosphorylation levels were examined (Fig. 3a). […] We performed additional dose–response western blotting studies using lower inhibitor concentrations. Immunoblots were quantitated by densitometry, and the EC50 for phosphorylation inhibition was estimated (Extended Data Fig. 4). […] Quantitation of immunoblots is shown in Extended Data Fig. 4c,d.
Following treatment, whole-cell extracts were prepared and subjected to western blotting analysis. Representative immunoblots from two independent experiments are shown. GAPDH was used as a loading control. RSK, ribosomal protein S6 kinase; S6RP, S6 ribosomal protein. b,c, Cells were plated in 96-well plates and treated for 96 h with the inhibitors shown. The number of viable cells was assessed using alamarBlue. b, Viability curves for control HBEC cells (HBECp53-EV) and HBEC cells with the CCDC6-RET fusion (HBECp53-RET) are shown at the left. […] Data were analyzed by non-linear regression, and IC50 values were estimated by curve fitting. […]
See Supplementary Table 4 for a complete list of antibodies and dilutions used. […] The bands of the target proteins were detected with SuperSignal West Dura Extended Duration Substrate (Thermo Fisher Scientific) by the Amersham Imager 600 QC (Cytiva) or exposed to X-ray film and visualized using a Kodak X-ray developer.

[3] = target: T1, panel of 255 (vepafestinib) or 256 (all other inhibitors) recombinant kinases (Homo sapiens, UniProt P29376); assay: Kinase selectivity profiling at a single concentration (Carna Biosciences); format: biochemical; details: 23 nM
T1 construct: purchased Carna Biosciences
T1 sequence (P29376 17-864): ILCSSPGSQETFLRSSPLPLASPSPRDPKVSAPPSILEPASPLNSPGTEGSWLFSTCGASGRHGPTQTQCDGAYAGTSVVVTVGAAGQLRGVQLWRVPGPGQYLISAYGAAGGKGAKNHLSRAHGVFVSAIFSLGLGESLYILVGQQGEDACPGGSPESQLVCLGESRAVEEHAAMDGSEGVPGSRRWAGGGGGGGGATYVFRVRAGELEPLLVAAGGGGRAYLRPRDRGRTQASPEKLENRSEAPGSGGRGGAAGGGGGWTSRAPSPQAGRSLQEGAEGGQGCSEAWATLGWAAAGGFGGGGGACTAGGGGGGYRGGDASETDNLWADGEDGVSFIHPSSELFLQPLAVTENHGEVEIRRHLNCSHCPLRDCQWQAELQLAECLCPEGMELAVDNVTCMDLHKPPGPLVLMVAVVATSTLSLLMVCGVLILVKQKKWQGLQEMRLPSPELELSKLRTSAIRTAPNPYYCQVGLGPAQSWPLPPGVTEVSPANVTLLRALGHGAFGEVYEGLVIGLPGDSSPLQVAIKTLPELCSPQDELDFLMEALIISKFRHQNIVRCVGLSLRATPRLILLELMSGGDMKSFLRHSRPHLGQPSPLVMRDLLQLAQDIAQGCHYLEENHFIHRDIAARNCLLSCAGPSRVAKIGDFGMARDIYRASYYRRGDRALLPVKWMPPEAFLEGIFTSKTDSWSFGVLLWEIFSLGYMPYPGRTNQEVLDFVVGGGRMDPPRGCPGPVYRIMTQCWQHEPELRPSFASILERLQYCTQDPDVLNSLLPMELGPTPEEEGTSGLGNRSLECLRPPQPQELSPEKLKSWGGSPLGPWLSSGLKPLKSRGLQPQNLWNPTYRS

[4] = target: T2, panel of 255 (vepafestinib) or 256 (all other inhibitors) recombinant kinases (Homo sapiens, UniProt Q9P0L2); assay: as above; format: biochemical; details: 23 nM
T2 construct: purchased Carna Biosciences
T2 sequence (Q9P0L2 whole entry): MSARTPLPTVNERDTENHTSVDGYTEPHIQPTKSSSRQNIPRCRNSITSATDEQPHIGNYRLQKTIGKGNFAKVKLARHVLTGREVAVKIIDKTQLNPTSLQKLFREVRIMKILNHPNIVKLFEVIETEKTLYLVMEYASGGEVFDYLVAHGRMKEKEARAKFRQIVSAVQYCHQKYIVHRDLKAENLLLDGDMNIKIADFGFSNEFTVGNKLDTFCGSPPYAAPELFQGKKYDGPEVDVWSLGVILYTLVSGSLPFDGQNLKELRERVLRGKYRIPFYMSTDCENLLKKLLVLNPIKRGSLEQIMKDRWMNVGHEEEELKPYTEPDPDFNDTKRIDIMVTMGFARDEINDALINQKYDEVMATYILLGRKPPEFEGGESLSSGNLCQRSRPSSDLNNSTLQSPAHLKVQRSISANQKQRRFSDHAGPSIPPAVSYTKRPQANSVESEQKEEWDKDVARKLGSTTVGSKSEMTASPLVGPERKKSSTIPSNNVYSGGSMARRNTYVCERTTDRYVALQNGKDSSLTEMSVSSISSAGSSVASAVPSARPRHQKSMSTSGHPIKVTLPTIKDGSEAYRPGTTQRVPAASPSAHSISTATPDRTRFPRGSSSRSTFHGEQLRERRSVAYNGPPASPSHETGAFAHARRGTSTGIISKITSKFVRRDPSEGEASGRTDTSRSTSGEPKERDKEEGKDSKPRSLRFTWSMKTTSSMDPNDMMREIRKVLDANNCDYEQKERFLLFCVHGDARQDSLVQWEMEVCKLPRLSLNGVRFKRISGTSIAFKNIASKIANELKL

[5] = target: T3, panel of 255 (vepafestinib) or 256 (all other inhibitors) recombinant kinases (Homo sapiens, UniProt P42684); assay: as above; format: biochemical; details: 23 nM
T3 construct: purchased Carna Biosciences
T3 sequence (P42684 whole entry): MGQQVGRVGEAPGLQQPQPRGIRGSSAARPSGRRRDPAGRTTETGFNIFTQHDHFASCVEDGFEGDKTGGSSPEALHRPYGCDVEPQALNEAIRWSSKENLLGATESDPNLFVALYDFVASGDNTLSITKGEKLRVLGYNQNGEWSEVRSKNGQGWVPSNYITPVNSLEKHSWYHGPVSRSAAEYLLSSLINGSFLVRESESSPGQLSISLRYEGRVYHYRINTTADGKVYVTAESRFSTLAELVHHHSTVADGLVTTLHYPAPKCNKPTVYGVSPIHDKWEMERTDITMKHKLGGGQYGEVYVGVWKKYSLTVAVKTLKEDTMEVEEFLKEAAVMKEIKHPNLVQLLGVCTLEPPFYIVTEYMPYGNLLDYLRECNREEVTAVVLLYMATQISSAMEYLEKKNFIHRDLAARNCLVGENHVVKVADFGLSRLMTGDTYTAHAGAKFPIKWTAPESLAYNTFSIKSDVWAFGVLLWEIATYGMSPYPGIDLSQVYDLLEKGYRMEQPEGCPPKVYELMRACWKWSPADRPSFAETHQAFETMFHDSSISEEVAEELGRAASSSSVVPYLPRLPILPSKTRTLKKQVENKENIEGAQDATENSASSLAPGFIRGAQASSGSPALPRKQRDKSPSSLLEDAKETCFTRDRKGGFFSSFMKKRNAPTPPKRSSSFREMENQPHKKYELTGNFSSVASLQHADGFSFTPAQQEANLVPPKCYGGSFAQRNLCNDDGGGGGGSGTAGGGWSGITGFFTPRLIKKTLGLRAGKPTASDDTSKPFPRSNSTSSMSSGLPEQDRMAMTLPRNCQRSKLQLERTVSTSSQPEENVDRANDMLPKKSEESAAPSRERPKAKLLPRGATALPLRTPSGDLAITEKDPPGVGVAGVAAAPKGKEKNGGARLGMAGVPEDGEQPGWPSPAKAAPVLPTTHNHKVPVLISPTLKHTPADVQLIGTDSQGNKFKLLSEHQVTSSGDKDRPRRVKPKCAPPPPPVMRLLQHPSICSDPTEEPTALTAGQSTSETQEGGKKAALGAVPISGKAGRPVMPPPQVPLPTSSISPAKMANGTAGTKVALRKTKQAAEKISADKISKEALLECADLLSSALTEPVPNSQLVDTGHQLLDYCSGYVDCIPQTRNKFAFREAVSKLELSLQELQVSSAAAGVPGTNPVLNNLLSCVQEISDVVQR

[6] = target: T4, panel of 255 (vepafestinib) or 256 (all other inhibitors) recombinant kinases (Homo sapiens, UniProt Q15303); assay: as above; format: biochemical; details: 23 nM
T4 construct: purchased Carna Biosciences
T4 sequence (Q15303 26-1308): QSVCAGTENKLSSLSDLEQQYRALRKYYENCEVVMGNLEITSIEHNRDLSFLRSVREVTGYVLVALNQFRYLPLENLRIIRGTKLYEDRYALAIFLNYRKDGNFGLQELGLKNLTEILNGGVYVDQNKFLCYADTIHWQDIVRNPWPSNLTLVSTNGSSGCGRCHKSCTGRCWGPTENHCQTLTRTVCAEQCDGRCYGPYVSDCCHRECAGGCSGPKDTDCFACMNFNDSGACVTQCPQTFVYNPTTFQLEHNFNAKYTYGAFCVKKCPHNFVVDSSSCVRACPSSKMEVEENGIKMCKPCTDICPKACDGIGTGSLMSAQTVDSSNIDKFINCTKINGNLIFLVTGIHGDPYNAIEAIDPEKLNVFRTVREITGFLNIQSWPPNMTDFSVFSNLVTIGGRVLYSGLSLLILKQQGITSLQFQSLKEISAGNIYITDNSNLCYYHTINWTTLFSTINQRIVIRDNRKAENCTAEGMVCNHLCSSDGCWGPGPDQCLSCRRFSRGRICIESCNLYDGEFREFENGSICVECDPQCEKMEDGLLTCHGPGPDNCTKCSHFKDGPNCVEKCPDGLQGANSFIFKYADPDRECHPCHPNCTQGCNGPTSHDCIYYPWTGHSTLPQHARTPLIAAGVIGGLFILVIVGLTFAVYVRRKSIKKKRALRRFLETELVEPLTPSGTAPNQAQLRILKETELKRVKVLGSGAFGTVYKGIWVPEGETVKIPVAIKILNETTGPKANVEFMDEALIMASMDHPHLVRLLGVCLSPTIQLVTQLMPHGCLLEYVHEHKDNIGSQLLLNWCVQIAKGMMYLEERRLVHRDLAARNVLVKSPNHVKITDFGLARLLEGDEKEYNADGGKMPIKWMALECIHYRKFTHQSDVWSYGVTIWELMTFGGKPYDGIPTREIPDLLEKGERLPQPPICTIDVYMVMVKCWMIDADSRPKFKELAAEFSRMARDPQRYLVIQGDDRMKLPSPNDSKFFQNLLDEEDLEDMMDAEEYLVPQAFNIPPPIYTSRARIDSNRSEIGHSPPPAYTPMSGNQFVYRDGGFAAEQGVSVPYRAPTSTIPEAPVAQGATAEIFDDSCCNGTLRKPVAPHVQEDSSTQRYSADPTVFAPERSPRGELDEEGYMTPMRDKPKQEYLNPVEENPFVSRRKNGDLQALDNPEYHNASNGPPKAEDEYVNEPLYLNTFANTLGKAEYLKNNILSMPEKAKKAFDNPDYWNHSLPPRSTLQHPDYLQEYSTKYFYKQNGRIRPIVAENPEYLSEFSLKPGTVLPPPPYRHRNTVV

COCc1ccc(NC(=O)c2c(C#CCN3CCOCC3)n(C3(C)CC3)c3ncnc(N)c23)cc1 [Vepafestinib, 4-amino-N-[4-(methoxymethyl)phenyl]-7-(1-methylcyclopropyl)-6-[3-(morpholin-4-yl)prop-1-yn-1-yl]-7H-pyrrolo[2,3-d]pyrimidine-5-carboxamide]
concentration at 120 min ([1]; male, Han Wistar, rat, plasma (total), oral, 50 mg/kg, 120 min, individual rats, read-out: Concentration in Rats, Plasma (total)): 9260 nM | concentration at 30 min ([1]; male, Han Wistar, rat, plasma, oral, 50 mg/kg, rats, 50 mg/kg, 30 min, individual animals, read-out: Concentration in Plasma (total)): 15100 nM | concentration at 60 min ([1]; male, Han Wistar, rat, plasma, oral, 50 mg/kg, rats, 50 mg/kg, 60 min, individual animals, read-out: Concentration in Plasma (total)): 10400 nM | concentration at 30 min ([1]; male, Han Wistar, rat, prefrontal cortex microdialysate, oral, 3 mg/kg, 30 min, individual rats, read-out: Concentration in Rats, Prefrontal cortex): 7.04 nM | concentration at 90 min ([1]; male, Han Wistar, rat, prefrontal cortex microdialysate, oral, 3 mg/kg, 90 min, individual rats): 102 nM | concentration at 120 min ([1]; male, Han Wistar, rat, prefrontal cortex microdialysate, oral, 3 mg/kg, 120 min, individual rats, read-out: Concentration in Rats, Prefrontal cortex): 129 nM | concentration at 150 min ([1]; male, Han Wistar, rat, prefrontal cortex microdialysate, oral, 3 mg/kg, 150 min, individual rats): 101 nM | concentration at 30 min ([1]; male, Han Wistar, rat, prefrontal cortex microdialysate, oral, 10 mg/kg, 30 min, individual rats, read-out: Concentration in Rats, Prefrontal cortex): 17.5 nM | concentration at 60 min ([1]; male, Han Wistar, rat, prefrontal cortex microdialysate, oral, 10 mg/kg, 60 min, individual rats, read-out: Concentration in Rats, Prefrontal cortex): 362 nM | concentration at 90 min ([1]; male, Han Wistar, rat, prefrontal cortex microdialysate, oral, 10 mg/kg, 90 min, individual rats): 514 nM | concentration at 120 min ([1]; male, Han Wistar, rat, prefrontal cortex microdialysate, oral, 10 mg/kg, 120 min, individual rats, read-out: Concentration in Rats, Prefrontal cortex): 479 nM | concentration at 150 min ([1]; male, Han Wistar, rat, prefrontal cortex microdialysate, oral, 10 mg/kg, 150 min, individual rats): 270 nM | concentration at 180 min ([1]; male, Han Wistar, rat, prefrontal cortex microdialysate, oral, 10 mg/kg, 180 min, individual rats, read-out: Concentration in Rats, Prefrontal cortex): 259 nM | concentration at 120 min ([1]; male, Han Wistar, rat, prefrontal cortex microdialysate, oral, 50 mg/kg, rats, 50 mg/kg, 120 min, individual animals, read-out: Concentration in Prefrontal cortex): 972 nM | concentration at 1500 min ([1]; male, Han Wistar, rat, prefrontal cortex microdialysate, oral, 50 mg/kg, rats, 50 mg/kg, 1500 min, individual animals, read-out: Concentration in Prefrontal cortex): 71.6 nM | concentration at 120 min ([1]; male, Han Wistar, rat, prefrontal cortex microdialysate, oral, 50 mg/kg, 120 min, individual rats, read-out: Concentration in Rats, Prefrontal cortex): 972 nM | concentration at 1500 min ([1]; male, Han Wistar, rat, prefrontal cortex microdialysate, oral, 50 mg/kg, 1500 min, individual rats, read-out: Concentration in Rats, Prefrontal cortex): 71.6 nM | concentration at 480 min ([1]; rats, 50 mg/kg, 30 min, individual animals, 50 mg/kg): 1290 nM and 1440 nM and 2760 nM and 1580 nM | concentration at 60 min ([1]; rats, 50 mg/kg, 30 min, individual animals, 50 mg/kg, read-out: Concentration in Plasma (total)): 15700 nM and 13100 nM and 11800 nM | concentration at 1500 min ([1]; rats, 50 mg/kg, 30 min, individual animals, 50 mg/kg, read-out: Concentration in Prefrontal cortex): 30.2 nM and 10.2 nM and 22.2 nM and 39.9 nM | concentration at 480 min ([1]; rats, 50 mg/kg, 60 min, individual animals, 50 mg/kg): 648 nM and 1420 nM and 2370 nM and 1210 nM | concentration at 60 min ([1]; rats, 50 mg/kg, 60 min, individual animals, 50 mg/kg, read-out: Concentration in Plasma (total)): 11900 nM and 11400 nM and 11800 nM | concentration at 1500 min ([1]; rats, 50 mg/kg, 60 min, individual animals, 50 mg/kg, read-out: Concentration in Prefrontal cortex): 883 nM and 396 nM and 691 nM and 1135 nM | concentration at 1500 min ([1]; rats, 50 mg/kg, 90 min, individual animals, 50 mg/kg, read-out: Concentration in Prefrontal cortex): 1549 nM and 742 nM and 1277 nM and 1593 nM | concentration at 480 min ([1]; rats, 50 mg/kg, 120 min, individual animals, 50 mg/kg): 1780 nM and 1160 nM and 2340 nM and 756 nM | concentration at 60 min ([1]; rats, 50 mg/kg, 120 min, individual animals, 50 mg/kg, read-out: Concentration in Plasma (total)): 16400 nM and 8330 nM and 13200 nM | concentration at 1500 min ([1]; rats, 50 mg/kg, 120 min, individual animals, 50 mg/kg, read-out: Concentration in Prefrontal cortex): 1089 nM and 1363 nM and 1680 nM | concentration at 1500 min ([1]; rats, 50 mg/kg, 150 min, individual animals, 50 mg/kg, read-out: Concentration in Prefrontal cortex): 804 nM and 1293 nM and 1118 nM and 1680 nM | concentration at 60 min ([1]; rats, 50 mg/kg, 180 min, individual animals, 50 mg/kg, read-out: Concentration in Plasma (total)): 6200 nM and 14400 nM and 6310 nM and 8540 nM | concentration at 1500 min ([1]; rats, 50 mg/kg, 180 min, individual animals, 50 mg/kg, read-out: Concentration in Prefrontal cortex): 761 nM and 1438 nM and 957 nM and 2162 nM | concentration at 1500 min ([1]; rats, 50 mg/kg, 210 min, individual animals, 50 mg/kg, read-out: Concentration in Prefrontal cortex): 555 nM and 1724 nM and 852 nM and 1666 nM | concentration at 480 min ([1]; rats, 50 mg/kg, 240 min, individual animals, 50 mg/kg): 1730 nM and 963 nM and 1170 nM and 522 nM | concentration at 60 min ([1]; rats, 50 mg/kg, 240 min, individual animals, 50 mg/kg, read-out: Concentration in Plasma (total)): 3870 nM and 13700 nM and 7630 nM and 7250 nM | concentration at 1500 min ([1]; rats, 50 mg/kg, 240 min, individual animals, 50 mg/kg, read-out: Concentration in Prefrontal cortex): 463 nM and 1651 nM and 722 nM and 1680 nM | concentration at 1500 min ([1]; rats, 50 mg/kg, 270 min, individual animals, 50 mg/kg, read-out: Concentration in Prefrontal cortex): 359 nM and 1856 nM and 877 nM and 1281 nM | concentration at 60 min ([1]; rats, 50 mg/kg, 300 min, individual animals, 50 mg/kg, read-out: Concentration in Plasma (total)): 4840 nM and 9390 nM and 5350 nM and 4540 nM | concentration at 60 min ([1]; rats, 50 mg/kg, 360 min, individual animals, 50 mg/kg, read-out: Concentration in Plasma (total)): 5830 nM and 7730 nM and 5370 nM and 2620 nM | concentration at 480 min ([1]; rats, 50 mg/kg, 480 min, individual animals, 50 mg/kg): 435 nM and 486 nM and 321 nM | concentration at 60 min ([1]; rats, 50 mg/kg, 480 min, individual animals, 50 mg/kg, read-out: Concentration in Plasma (total)): 134 nM and 4450 nM and 4860 nM and 4260 nM | concentration at 1500 min ([1]; rats, 50 mg/kg, 1500 min, individual animals, 50 mg/kg, read-out: Concentration in Prefrontal cortex): 123 nM | inhibition of phosphorylation of RET and downstream effectors [2]: Near-complete inhibition | % Inhibiton LTK [3]: 11.3% | % Inhibiton MARK1 [4]: 6.5% | % Inhibiton ARG [5]: 7.3% | % Inhibiton HER4 [6]: 9.5%
